From patent publication US6750381B2, “Pathogen-resistant plants transformed with a DNA encoding sarcotoxin 1A linked to a signal peptide and a method for production thereof” (National Institute of Agrobiological Sciences, priority 1996, dated 2004)

Assays:
Assay in all cases: Anti-fungal activity of Sarcotoxin 1a in vitro (hyphal area on agar plate)
Type in all cases: cell-based
Fusarium oxysporum F-3 = details: 5-fold diluted PDA medium, 22° C. in the dark; FIG. 12
Experimental: (§1) Sarcotoxin 1a was measured for an anti-fungal activity against Fusarium oxysporum F-3, Rhizoctonia solani, and Rhizoctonia solani AG-4 1272.
(§2) It has not been known if Sarcotoxin 1a has an anti-fungal activity and how to measure the activity. Therefore, a pre-culture medium and a test medium were variously studied. The pre-culture medium, in which a lawn may be uniformly enlarged within a short period of time, was selected. The test medium, which controls the extension of hyphae as much as possible and allows easy confirmation, was selected.
(§3) (i) Czapek's modified medium (10 g of sucrose, 0.5 g of MgSO4.7H2O, 2.0 g of NaNO3, 0.01 g of Fe2(SO4)3, 1.0 g of K2HPO4, 0.5 g of KCl, 15 g of agarose per liter, pH 6.8 to 7.0; used for Rhizoctonia solani AG-4 1272), (ii) 5-fold diluted PDA medium (7.8 g of Bacto (Trademark) Poteto Dextrose Agar, 12 g of agarose per liter; used for Fusarium oxysporum F-3), (iii) Na2HPO4—NaH2PO4 buffer (15 g/l agarose, pH 5.8; used for Rhizoctonia solani).
(§4) The media for detection were autoclaved. When the media was cooled to 50° C., Sarcotoxin 1a (synthesized by a peptide synthesis and purified to 99% or more by HPLC) was added to each medium. Each of the resulting media was dispensed into a 12-well microplate at 400 μl per well and solidified.
(§5) Fusarium oxysporum F-3, Rhizoctonia solani, and Rhizoctonia solani AG-4 1272 were respectively pre-cultured in a PDA media (39 g/l Bacto (Trademark) Poteto Dextrose Agar) at 22° C. for 2 days.
(§6) An outermost lawn of each hypha spreading over almost the entire surface of the PDA medium of a 9 cm-petri dish was punched with a cork borer with a diameter of 4 mm, and each fungi was placed in the center of a well of a test plate in such a manner that the surface of the layer faced down. Each test plate for detection was kept at 22° C. in the dark.
(§7) Each test plate inoculated with the above-mentioned pathogenic fungi was measured for the size of each hypha growing under transmitted light at established periods, and the area of each hypha and a standard deviation were calculated (see FIGS. 12, 13, and 14). […]

[1] = tested on: Rhizoctonia solani AG-4 1272; details: Czapek's modified medium, 22° C. in the dark; FIG. 13
Experimental: as §1, §2, §3, §4, §5, §6, §7

Rhizoctonia solani = details: Na2HPO4-NaH2PO4 buffer agarose pH 5.8, 22° C. in the dark; FIG. 14
Experimental: as §1, §2, §3, §4, §5, §6, §7

Measured: anti-fungal properties (area of each hypha)

Sarcotoxin 1a (GWLKKIGKKIERVGQHTRDATIQGLGIAQQAANVAATAR) [anti-bacterial peptide derived from Boettherisca peregrina (Diptera insect); synthesized by a peptide synthesis and purified to 99% or more by HPLC]
concentration-dependent manner: Fusarium oxysporum F-3 | [1] | Rhizoctonia solani
